Measurements from patent publication EP0481744B1, “Piperazine derivatives” (JOHN WYETH & BROTHER LIMITED, priority 1990, dated 1992).

Assays:
[1] = tested on: mouse exploratory activity; assay: Potential anxiolytic activity: mouse exploratory activity in a two-compartment light/dark box; format: in vivo; conditions: s.c.
Description: The compounds were also tested for potential anxiolytic activity by a test procedure measuring mouse exploratory activity in a two-compartment light/dark box based upon the procedure of B Costall et al, Neuropharmacology, 1987, 26, 195-200 and J.N. Crawley et al, Pharmac. Biochem. Behav. 1980, 13, 167-170. The results are given below

5HT1A receptor [2] = biological target: T1, 5HT1A receptor (Rattus norvegicus, UniProt P19327); assay: 5HT1A receptor antagonism: antagonism of 8-OH DPAT syndrome in the rat; format: in vivo; parameters: (8-OH DPAT) syndrome in the rat; from tissue; host or cells: whole animal (rat), in vivo; conditions: antagonism of 8-hydroxy-2-(di-n-propylamino)-tetralin (8-OH DPAT) syndrome in the rat; s.c.
T1 sequence (P19327 1-422): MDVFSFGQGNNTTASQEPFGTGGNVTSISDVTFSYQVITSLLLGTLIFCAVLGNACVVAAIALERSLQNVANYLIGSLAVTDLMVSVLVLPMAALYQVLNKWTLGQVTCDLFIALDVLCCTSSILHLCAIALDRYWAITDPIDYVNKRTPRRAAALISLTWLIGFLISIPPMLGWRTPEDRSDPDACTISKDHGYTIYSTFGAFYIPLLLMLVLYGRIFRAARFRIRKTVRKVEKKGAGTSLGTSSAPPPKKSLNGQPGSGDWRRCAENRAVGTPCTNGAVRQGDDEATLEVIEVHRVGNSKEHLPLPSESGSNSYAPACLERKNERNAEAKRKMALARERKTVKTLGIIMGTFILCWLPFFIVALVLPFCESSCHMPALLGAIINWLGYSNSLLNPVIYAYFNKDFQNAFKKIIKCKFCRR
Description: The compounds were also tested for 5HT1A receptor antagonism activity in a test involving the antagonism of 8-hydroxy-2-(di-n-propylamino)-tetralin (8-OH DPAT) syndrome in the rat. The results are given below

5HT1A receptor [3] = biological target: T1, 5HT1A receptor; assay: 5-HT1A receptor binding activity in rat hippocampal membrane homogenate; parameters: rat hippocampal membrane homogenate; from tissue; host or cells: rat hippocampus (membrane homogenate)
Description: The compounds of the invention were tested for 5-HT1A receptor binding activity in rat hippocampal membrane homogenate by the method of B S Alexander and M D Wood, J Pharm Pharmacol, 1988, 40, 888-891.

Row | SMILES | MED [1] | MED (5HT1A receptor [2]) | IC50 (5HT1A receptor [3]) [nM]
1 | COc1ccccc1N1CCN(CCC(C(=O)N2CCCCCC2)c2ccccc2)CC1 (stereo not drawn) [Compound A, 2,3,4,5,6,7-hexahydro-1-{4-[1-[4-(2-methoxyphenyl)-piperazinyl]]-2-phenylbutyryl}-1H-azepine] | 0.03 mg/kg; s.c. | 0.03 mg/kg; s.c. | 3
2 | COc1ccccc1N1CCN(CCC(C(=O)N2CCCCCC2)c2ccccc2)CC1 (single isomer, unassigned) [Compound C, 2,3,4,5,6,7-Hexahydro-1-⁅4-[1-[4-(2-methoxyphenyl)-piperazinyl]]-2-phenylbutyryl⁆-1H-azepine] | – | – | 1
3 | COc1ccccc1N1CCN(CC(C(=O)N2CCCCCC2)c2ccccc2)CC1 (stereo not drawn) [Compound B, 2,3,4,5,6,7-hexahydro-1-⁅3-⁅1-[4-(2-methoxyphenyl)piperazinyl]⁆-2-phenylpropionyl⁆-1H-azepine, reference compound] | 1 mg/kg; s.c. | 0.3 mg/kg; s.c. | –
